In ChEMBL document CHEMBL4680362, “Androgen Receptor Protein Degradation in the Treatment of Castration-Resistant Prostate Cancer” (ACS Med Chem Lett, 2021):

Tests used:
[1] = target: T1, von Hippel-Lindau disease tumor suppressor/Androgen receptor (Homo sapiens) (UniProt P10275+P40337); assay: Protac activity at VHL/AR in human LNCaP cells assessed as degradation of AR at 0.01 uM measured after 6 hrs by Western blot analysis relative to control; format: cell-based
[2] = target: T1, von Hippel-Lindau disease tumor suppressor/Androgen receptor (Homo sapiens); assay: Protac activity at VHL/AR in human LNCaP cells assessed as degradation of AR at 0.1 uM measured after 6 hrs by Western blot analysis relative to control; format: cell-based

T1 sequence (P10275 whole entry, looked up): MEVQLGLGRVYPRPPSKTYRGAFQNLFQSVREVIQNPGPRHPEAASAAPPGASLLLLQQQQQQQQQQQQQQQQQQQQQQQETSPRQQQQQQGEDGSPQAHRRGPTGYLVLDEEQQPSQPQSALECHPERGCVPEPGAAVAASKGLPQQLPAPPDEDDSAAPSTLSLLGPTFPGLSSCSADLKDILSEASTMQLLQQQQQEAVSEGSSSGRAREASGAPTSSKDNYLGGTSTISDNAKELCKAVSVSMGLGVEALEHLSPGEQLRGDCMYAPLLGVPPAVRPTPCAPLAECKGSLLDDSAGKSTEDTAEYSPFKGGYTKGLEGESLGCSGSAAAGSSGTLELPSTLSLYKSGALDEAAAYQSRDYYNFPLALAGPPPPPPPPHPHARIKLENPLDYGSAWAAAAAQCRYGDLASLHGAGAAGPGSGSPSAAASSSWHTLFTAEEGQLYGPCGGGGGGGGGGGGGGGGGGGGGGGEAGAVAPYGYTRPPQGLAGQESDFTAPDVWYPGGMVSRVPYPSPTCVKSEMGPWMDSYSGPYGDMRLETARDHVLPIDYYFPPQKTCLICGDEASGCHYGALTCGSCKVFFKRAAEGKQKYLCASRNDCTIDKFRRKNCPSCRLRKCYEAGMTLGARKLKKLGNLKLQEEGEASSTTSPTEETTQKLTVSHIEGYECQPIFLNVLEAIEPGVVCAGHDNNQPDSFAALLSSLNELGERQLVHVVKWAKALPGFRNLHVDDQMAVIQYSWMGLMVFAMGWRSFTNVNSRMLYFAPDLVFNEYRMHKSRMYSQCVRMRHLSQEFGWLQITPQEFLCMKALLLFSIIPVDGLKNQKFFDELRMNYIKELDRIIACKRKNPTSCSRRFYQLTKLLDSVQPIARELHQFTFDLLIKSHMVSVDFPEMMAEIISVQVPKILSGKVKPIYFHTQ
T1 sequence (P40337 whole entry, looked up): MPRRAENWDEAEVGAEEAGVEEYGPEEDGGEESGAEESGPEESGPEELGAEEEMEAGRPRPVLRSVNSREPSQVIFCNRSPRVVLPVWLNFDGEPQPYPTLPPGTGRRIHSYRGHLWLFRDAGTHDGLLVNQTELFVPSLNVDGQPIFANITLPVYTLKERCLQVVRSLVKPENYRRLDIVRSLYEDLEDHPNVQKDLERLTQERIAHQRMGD

Activity [1] [%]	Activity [2] [%]	Compound
89	99	Cc1ncsc1-c1ccc([C@H](CC(=O)N2CCC(N3CCC(C#Cc4ccc(C(=O)N[C@H]5C(C)(C)[C@H](Oc6ccc(C#N)c(Cl)c6)C5(C)C)cc4)CC3)CC2)NC(=O)[C@@H]2C[C@@H](O)CN2C(=O)[C@@H](NC(=O)C2(F)CC2)C(C)(C)C)cc1
76	98	Cc1cc([C@H](C(=O)N2C[C@H](O)C[C@H]2C(=O)N[C@@H](CC(=O)N2CCC(N3CCC(C#Cc4ccc(C(=O)N[C@H]5C(C)(C)[C@H](Oc6ccc(C#N)c(Cl)c6)C5(C)C)cc4)CC3)CC2)c2ccc(-c3scnc3C)cc2)C(C)C)on1
–	65	Cc1cc([C@H](C(=O)N2C[C@H](O)C[C@H]2C(=O)N[C@@H](CC(=O)N2CCC(N3CCC(C#Cc4ccc(Cc5c(C)nn(-c6ccc(C#N)c(Cl)c6)c5C)cc4)CC3)CC2)c2ccc(-c3scnc3C)cc2)C(C)C)on1
39	77	CC(=O)N[C@H](C(=O)N1C[C@H](O)C[C@H]1C(=O)N[C@@H](CC(=O)N1CCC(N2CCC(C#Cc3ccc(C(=O)N[C@H]4C(C)(C)[C@H](Oc5ccc(C#N)c(Cl)c5)C4(C)C)cc3)CC2)CC1)c1ccc(-c2scnc2C)cc1)C(C)(C)C
76	99	Cc1ncsc1-c1ccc([C@H](CC(=O)N2CCC(N3CCC(C#Cc4ccc(C(=O)N[C@H]5C(C)(C)[C@H](Oc6ccc(C#N)c(Cl)c6)C5(C)C)cc4)CC3)CC2)NC(=O)[C@@H]2C[C@@H](O)CN2C(=O)[C@@H](NC(=O)C2(C#N)CC2)C(C)(C)C)cc1

Continued, compound first:

Compound	Activity [1] [%]	Activity [2] [%]
Cc1cc([C@H](C(=O)N2C[C@H](O)C[C@H]2C(=O)N[C@@H](CC(=O)NN2CCC(N3CCC(C#Cc4ccc(N5C(=S)N(c6ccc(C#N)c(C(F)(F)F)c6)C(=O)C5(C)C)cc4)CC3)CC2)c2ccc(-c3scnc3C)cc2)C(C)C)on1	20	81
CC1(C)[C@H](NC(=O)c2ccc(C#CC3CCN(C4CCN(c5cccc6c5C(=O)N(C5CCC(=O)NC5=O)C6=O)CC4)CC3)cc2)C(C)(C)[C@H]1Oc1ccc(C#N)c(Cl)c1 (some centres undefined)	–	2
Cc1cc([C@H](C(=O)N2C[C@H](O)C[C@H]2C(=O)N[C@@H](CC(=O)NN2CCC(N3CCC(C#Cc4ccc(N5C(=S)N(c6cnc(C#N)c(C(F)(F)F)c6)C(=O)C56CCC6)cc4)CC3)CC2)c2ccc(-c3scnc3C)cc2)C(C)C)on1	38	80
